# Results published in patent publication EP2654730B1, “HIGH DRUG LOAD PHARMACEUTICAL FORMULATIONS COMPRISING DRONEDARONE AND ITS PHARMACEUTICALLY ACCEPTABLE SALTS” (KRKA, d.d., Novo mesto, priority 2010, dated 2012).
# Counter-ions that a name gives are not always drawn.
# Assays:
# [1] = Dissolution test of Dronedarone HCl 400 mg tablets (Apparatus 2 paddle); type: physicochemical; details: at 60 minutes, paddle 75 rpm, 1000 ml Buffer Solution pH 4.5
# Procedure: The dissolution profiles of several of the pharmaceutical compositions exemplified above are determined.
# Dissolution conditions for Dronedarone HCl 400 mg tablets: • Apparatus: 2 - Paddle (USP and Ph. Eur.) • Rotation speed: 75 rpm • Medium: 1000 ml Buffer Solution pH 4.5
# API 1 or API 2 was included in the pharmaceutical composition as disclosed in example 17.
# The pharmaceutical compositions used in dissolution test shown in Figure 2 comprised different surfactants or no surfactant. The pharmaceutical compositions were prepared according to examples 16A-D, 17A and 18A by using API 1, API 2 or API 3.
# [2] = Particle size d90 by laser light scattering (Malvern Mastersizer MS 2000); type: physicochemical; details: particles after crystallization and Jetmill MC-50 micronization
# From the text: As used herein d90<x means that at least 90% by volume of the particles have a particle size below x. The particle size can be determined by laser light scattering for instance using a Malvern Mastersizer Apparatus MS 2000 equipped with a Hydro S dispersion unit. Silicon fluid F10 may be used as dispersion medium.
# [3] = Specific surface area of dronedarone HCl particles (BET method); type: physicochemical; details: particles after crystallization and Jetmill MC-50 micronization
# From the text: The specific surface area can be determined using the BET method.
# [4] = aqueous media, pH 3-5 (maximal); cited from earlier work
Compound,"dissolution rate ([1]; compositions of examples 16A-D, 17A and 18A, compared with compositions prepared from API 2 or API 3)","dissolution rate ([1]; tablet composition of example 17, compared with same composition prepared from API 2)",Particle size d90 [2],Specific surface area [3],solubility [4]
CCCCc1oc2ccc(NS(C)(=O)=O)cc2c1C(=O)c1ccc(OCCCN(CCCC)CCCC)cc1.Cl [API 1],substantial lower dissolution rate,substantial lower dissolution rate,5.1 µm,8.3 m^2/g,–
CCCCc1oc2ccc(NS(C)(=O)=O)cc2c1C(=O)c1ccc(OCCCN(CCCC)CCCC)cc1.Cl [API 2],–,–,7.1 µm,6.2 m^2/g,–
"CCCCc1oc2ccc(NS(C)(=O)=O)cc2c1C(=O)c1ccc(OCCCN(CCCC)CCCC)cc1 [dronedarone hydrochloride, N-(2-butyl-3-(p-(3-(dibutylamino)propoxy)benzoyl)-5-benzofuranyl)methanesulfonamide]",–,–,–,–,1000 to 2000 µg/mL
CCCCc1oc2ccc(NS(C)(=O)=O)cc2c1C(=O)c1ccc(OCCCN(CCCC)CCCC)cc1.Cl [API 3],–,–,7.4 µm,6.0 m^2/g,–
